# Assay results taken from US10045952B2, “Anti-Viral Compound and Composition” (Forest Herbs Research Limited, priority 2013, dated 2018).
# Entries after “also recorded” stand apart in the source; their conditions may differ.
# Columns and labels:
# HSV-1 [1] = test: Crystal violet assay, anti-viral activity against HSV-1 in Vero cells; type: cell-based, Herpes simplex type 1 virus
# Description: A wild-type HSV-1 obtained from ESR, Upper Hutt, was cultured in Vero (African Green Monkey kidney) tissue culture cells. HSV-1 virus was added to confluent Vero cell monolayers and allowed to infect until >70% cytopathic effect was observed. The infected cultures were then frozen and thawed three times and centrifuged at 3000 rpm for 15 minutes. The supernatant was stored at −80° C. until use.
# (§1) The crystal violet assay depends on the ability of adherent cell lines such as Vero to stick to the bottom of tissue culture plates. Damaged or dead cells lose their ability to adhere and are removed during a washing process. Viable cells remaining are stained with crystal violet, which is then released from the cells and measured in a spectrophotometer.
# (§2) Vero cells were seeded at 3×10^5 cells/ml overnight at 37° C. in 96-well tissue culture plates. When cells had reached confluency, 50 μl of the growth media was removed and replaced with 25 μl of virus and 25 μl of test product. Controls were the same as those used in the xCelligence assay. The assay was terminated after 96 hours which is the length of time taken to see CPE in the control wells.
# HSV-1 [2] = test: Crystal violet assay, anti-viral activity against HSV-1 in HaCaT cells; type: cell-based, Herpes simplex type 1 virus
# Description: The crystal violet assay depends on the ability of adherent cell lines such as Vero to stick to the bottom of tissue culture plates. Damaged or dead cells lose their ability to adhere and are removed during a washing process. Viable cells remaining are stained with crystal violet, which is then released from the cells and measured in a spectrophotometer. Vero cells were seeded at 3×10^5 cells/ml overnight at 37° C. in 96-well tissue culture plates. When cells had reached confluency, 50 μl of the growth media was removed and replaced with 25 μl of virus and 25 μl of test product. Controls were the same as those used in the xCelligence assay. The assay was terminated after 96 hours which is the length of time taken to see CPE in the control wells. In the first test (results shown in FIGS. 2A and B), the HSV-1 anti-viral activity of pure polygodial was assessed in comparison to Acyclovir in both Vero cells (FIG. 2A) and HaCaT cells (FIG. 2B).
# [3] = test system: Vero cells and HaCaT cells; test: Cytotoxicity to the cells used in the in vitro anti-viral testing (crystal violet assay); type: cell-based, African Green Monkey; settings: at the concentrations tested in the anti-viral assay
# Description: as §1, §2
# In this test, it was confirmed that polygodial is not cytotoxic at the concentrations tested because where strong anti-viral activity is present, the cells are alive and uninfected by the virus.
# cells = settings: literature statement; cited from earlier work
# [4] = 4 μl/ml Acyclovir, virus only control infection rate about 75%
compound,measurement,setting,value
"Nc1nc2c(ncn2COCCO)c(=O)[nH]1 [Acyclovir, reference compound]","uninfected cells, Acyclovir control, first test (FIGS. 2A and B)","HSV-1 [1]; 4 μl/ml Acyclovir, Vero and HaCaT not distinguished, virus only control infection rate about 80%",80%
same,"uninfected Vero cells, Acyclovir control, second test (FIG. 3A)",HSV-1 [1]; [4],60%
same,"uninfected HaCaT cells, Acyclovir control, second test (FIG. 3B)",HSV-1 [2]; [4],75%
CC1(C)CCC[C@]2(C)[C@@H](C=O)C(C=O)=CC[C@@H]12 [polygodial],MIC,"HSV-1 [1]; Human alphaherpesvirus 1, calculated, HSV-1, cell line not distinguished (Vero and HaCaT)",600 to 1200 µg/mL
same,concentration at which anti-viral effect was comparative to 4 μl/ml Acyclovir,HSV-1 [1]; Vero cells,0.15 mg/mL
same,cytotoxicity,[3],not cytotoxic; also recorded: low cytotoxicity
same,concentration at which anti-viral effect was comparative to 4 μl/ml Acyclovir,HSV-1 [2]; HaCaT cells,0.3125 mg/mL
CC1(C)CCC[C@@]2(C)[C@H]1CC=C(C=O)[C@]2(O)C=O [warburganal],cytotoxicity,cells,particularly cytotoxic
